According to ChEMBL document CHEMBL1671662, “In vitro activities of telavancin and six comparator agents against anaerobic bacterial isolates” (2009):
Converted amounts (≈) assume the structure as drawn.

Tests used:
Assay type in all cases: functional
Clostridium bolteae = assay: Antibacterial activity against Clostridium bolteae by CLSI M11-A6 agar dilution method; conditions: Enterocloster bolteae
[1] = test system: Enterocloster clostridioformis; assay: Antibacterial activity against Clostridium clostridioforme by CLSI M11-A6 agar dilution method
[Clostridium] innocuum = Antibacterial activity against Clostridium innocuum by CLSI M11-A6 agar dilution method
Thomasclavelia ramosa = assay: Antibacterial activity against Clostridium ramosum by CLSI M11-A6 agar dilution method
Clostridium beijerinckii = assay: Antibacterial activity against Clostridium beijerinckii by CLSI M11-A6 agar dilution method
[2] = test system: Paraclostridium bifermentans; assay: Antibacterial activity against Clostridium bifermentans by CLSI M11-A6 agar dilution method
Clostridium glycolicum = assay: Antibacterial activity against Clostridium glycolicum by CLSI M11-A6 agar dilution method; conditions: Terrisporobacter glycolicus
Clostridium = assay: Antibacterial activity against Clostridium hypermegas by CLSI M11-A6 agar dilution method
Clostridium leptum = assay: Antibacterial activity against Clostridium leptum by CLSI M11-A6 agar dilution method
Clostridium scindens = assay: Antibacterial activity against Clostridium scindens by CLSI M11-A6 agar dilution method
Clostridium tertium = assay: Antibacterial activity against Clostridium tertium by CLSI M11-A6 agar dilution method
Actinomyces naeslundii = assay: Antibacterial activity against Actinomyces naeslundii by CLSI M11-A6 agar dilution method
Bifidobacterium bifidum = assay: Antibacterial activity against Bifidobacterium bifidum by CLSI M11-A6 agar dilution method
Bifidobacterium breve = assay: Antibacterial activity against Bifidobacterium breve by CLSI M11-A6 agar dilution method
Bifidobacterium dentium = assay: Antibacterial activity against Bifidobacterium dentium by CLSI M11-A6 agar dilution method
Eggerthella lenta = assay: Antibacterial activity against Eggerthella lenta by CLSI M11-A6 agar dilution method
Holdemania filiformis = assay: Antibacterial activity against Holdemania filiformis by CLSI M11-A6 agar dilution method
[3] = test system: Propionibacterium propionicum; assay: Antibacterial activity against Propionibacterium propionicus by CLSI M11-A6 agar dilution method; conditions: Arachnia propionica
Ruminococcus gnavus = assay: Antibacterial activity against Ruminococcus gnavus by CLSI M11-A6 agar dilution method; conditions: Mediterraneibacter gnavus
[4] = test system: Ruminococcus flavefaciens; assay: Antibacterial activity against Ruminococcus flavefaciens by CLSI M11-A6 agar dilution method
Blautia producta = assay: Antibacterial activity against Ruminococcus productus by CLSI M11-A6 agar dilution method
Ruminococcus sp. = assay: Antibacterial activity against Ruminococcus sp. by CLSI M11-A6 agar dilution method
Anaerococcus prevotii = assay: Antibacterial activity against Anaerococcus prevotii by CLSI M11-A6 agar dilution method
[5] = test system: Peptostreptococcus anaerobius; assay: Antibacterial activity against Peptostreptococcus anaerobius by CLSI M11-A6 agar dilution method
Parvimonas micra = assay: Antibacterial activity against Peptostreptococcus micros by CLSI M11-A6 agar dilution method
[6] = test system: Streptococcus constellatus; assay: Antibacterial activity against Streptococcus constellatus by CLSI M11-A6 agar dilution method
[7] = test system: Parabacteroides distasonis; assay: Antibacterial activity against Parabacteroides distasonis by CLSI M11-A6 agar dilution method
Bacteroides fragilis = assay: Antibacterial activity against Bacteroides fragilis by CLSI M11-A6 agar dilution method
Bacteroides ovatus = assay: Antibacterial activity against Bacteroides ovatus by CLSI M11-A6 agar dilution method
Phocaeicola vulgatus = assay: Antibacterial activity against Bacteroides vulgatus by CLSI M11-A6 agar dilution method
Bilophila wadsworthia = assay: Antibacterial activity against Bilophila wadsworthia by CLSI M11-A6 agar dilution method
Fusobacterium mortiferum = assay: Antibacterial activity against Fusobacterium mortiferum by CLSI M11-A6 agar dilution method
Prevotella denticola = assay: Antibacterial activity against Prevotella P denticola by CLSI M11-A6 agar dilution method
Prevotella disiens = assay: Antibacterial activity against Prevotella P disiens by CLSI M11-A6 agar dilution method
Prevotella intermedia = assay: Antibacterial activity against Prevotella intermedia by CLSI M11-A6 agar dilution method
Hoylesella loescheii = assay: Antibacterial activity against Prevotella loescheii by CLSI M11-A6 agar dilution method
[8] = test system: Prevotella melaninogenica; assay: Antibacterial activity against Prevotella melaninogenica by CLSI M11-A6 agar dilution method
Hoylesella oralis = assay: Antibacterial activity against Prevotella oralis by CLSI M11-A6 agar dilution method
[9] = test system: Sutterella wadsworthensis; assay: Antibacterial activity against Sutterella wadsworthensis by CLSI M11-A6 agar dilution method

How did the MIC50 (Clostridium bolteae) turn out when `CC(=O)NC[C@H]1CN(c2ccc(N3CCOCC3)c(F)c2)C(=O)O1` [LINEZOLID] was run?
Its MIC50 is 4 µg/mL (≈ 11.9 µM).

And the MIC90 (Clostridium bolteae)?
Its MIC90 is 4 µg/mL (≈ 11.9 µM).

And the MIC50 [1]?
The MIC50 was 4 µg/mL (≈ 11.9 µM).

What about the MIC90 [1] of the same molecule?
Its MIC90 is 4 µg/mL (≈ 11.9 µM).

What about the MIC ([Clostridium] innocuum) of the same molecule?
Its MIC is 2 µg/mL (≈ 5.93 µM).

And the MIC50 ([Clostridium] innocuum)?
Its MIC50 is 2 µg/mL (≈ 5.93 µM).

And the MIC90 ([Clostridium] innocuum)?
Its MIC90 is 4 µg/mL (≈ 11.9 µM).

What about the MIC50 (Thomasclavelia ramosa) of the same molecule?
Its MIC50 is 8 µg/mL (≈ 23.7 µM).

And the MIC90 (Thomasclavelia ramosa)?
The MIC90 was 8 µg/mL (≈ 23.7 µM).

And the MIC50 (Clostridium beijerinckii)?
The MIC50 was 2 µg/mL (≈ 5.93 µM).

And the MIC90 (Clostridium beijerinckii)?
The MIC90 was 4 µg/mL (≈ 11.9 µM).

What about the MIC50 [2] of the same molecule?
The MIC50 was 2 µg/mL (≈ 5.93 µM).

And the MIC90 [2]?
Its MIC90 is 4 µg/mL (≈ 11.9 µM).

What about the MIC50 (Clostridium glycolicum) of the same molecule?
Its MIC50 is 2 µg/mL (≈ 5.93 µM).

And the MIC90 (Clostridium glycolicum)?
The MIC90 was 4 µg/mL (≈ 11.9 µM).

What about the MIC50 (Clostridium) of the same molecule?
The MIC50 was 2 µg/mL (≈ 5.93 µM).

What about the MIC90 (Clostridium) of the same molecule?
The MIC90 was 4 µg/mL (≈ 11.9 µM).

And the MIC50 (Clostridium leptum)?
Its MIC50 is 2 µg/mL (≈ 5.93 µM).

And the MIC90 (Clostridium leptum)?
Its MIC90 is 4 µg/mL (≈ 11.9 µM).

What about the MIC50 (Clostridium scindens) of the same molecule?
The MIC50 was 2 µg/mL (≈ 5.93 µM).

And the MIC90 (Clostridium scindens)?
Its MIC90 is 4 µg/mL (≈ 11.9 µM).

And the MIC50 (Clostridium tertium)?
Its MIC50 is 2 µg/mL (≈ 5.93 µM).

And the MIC90 (Clostridium tertium)?
The MIC90 was 4 µg/mL (≈ 11.9 µM).

What about the MIC50 (Actinomyces naeslundii) of the same molecule?
The MIC50 was 1 µg/mL (≈ 2.96 µM).

What about the MIC90 (Actinomyces naeslundii) of the same molecule?
Its MIC90 is 8 µg/mL (≈ 23.7 µM).

What about the MIC50 (Bifidobacterium bifidum) of the same molecule?
The MIC50 was 1 µg/mL (≈ 2.96 µM).

What about the MIC90 (Bifidobacterium bifidum) of the same molecule?
Its MIC90 is 8 µg/mL (≈ 23.7 µM).

And the MIC50 (Bifidobacterium breve)?
The MIC50 was 1 µg/mL (≈ 2.96 µM).

What about the MIC90 (Bifidobacterium breve) of the same molecule?
Its MIC90 is 8 µg/mL (≈ 23.7 µM).

What about the MIC50 (Bifidobacterium dentium) of the same molecule?
Its MIC50 is 1 µg/mL (≈ 2.96 µM).

What about the MIC90 (Bifidobacterium dentium) of the same molecule?
Its MIC90 is 8 µg/mL (≈ 23.7 µM).

What about the MIC50 (Eggerthella lenta) of the same molecule?
Its MIC50 is 1 µg/mL (≈ 2.96 µM).

And the MIC90 (Eggerthella lenta)?
The MIC90 was 8 µg/mL (≈ 23.7 µM).

What about the MIC50 (Holdemania filiformis) of the same molecule?
Its MIC50 is 1 µg/mL (≈ 2.96 µM).

And the MIC90 (Holdemania filiformis)?
Its MIC90 is 8 µg/mL (≈ 23.7 µM).

What about the MIC50 [3] of the same molecule?
The MIC50 was 1 µg/mL (≈ 2.96 µM).

What about the MIC90 [3] of the same molecule?
Its MIC90 is 8 µg/mL (≈ 23.7 µM).

What about the MIC50 (Ruminococcus gnavus) of the same molecule?
The MIC50 was 2 µg/mL (≈ 5.93 µM).

What about the MIC90 (Ruminococcus gnavus) of the same molecule?
The MIC90 was 2 µg/mL (≈ 5.93 µM).

What about the MIC50 [4] of the same molecule?
The MIC50 was 2 µg/mL (≈ 5.93 µM).

What about the MIC90 [4] of the same molecule?
Its MIC90 is 4 µg/mL (≈ 11.9 µM).

And the MIC50 (Blautia producta)?
Its MIC50 is 2 µg/mL (≈ 5.93 µM).

And the MIC90 (Blautia producta)?
The MIC90 was 4 µg/mL (≈ 11.9 µM).

What about the MIC50 (Ruminococcus sp.) of the same molecule?
The MIC50 was 1 µg/mL (≈ 2.96 µM).

And the MIC90 (Ruminococcus sp.)?
Its MIC90 is 2 µg/mL (≈ 5.93 µM).

And the MIC50 (Anaerococcus prevotii)?
Its MIC50 is 1 µg/mL (≈ 2.96 µM).

What about the MIC90 (Anaerococcus prevotii) of the same molecule?
The MIC90 was 2 µg/mL (≈ 5.93 µM).

What about the MIC50 [5] of the same molecule?
Its MIC50 is 1 µg/mL (≈ 2.96 µM).

What about the MIC90 [5] of the same molecule?
The MIC90 was 2 µg/mL (≈ 5.93 µM).

What about the MIC50 (Parvimonas micra) of the same molecule?
Its MIC50 is 1 µg/mL (≈ 2.96 µM).

And the MIC90 (Parvimonas micra)?
The MIC90 was 2 µg/mL (≈ 5.93 µM).

And the MIC50 [6]?
Its MIC50 is 2 µg/mL (≈ 5.93 µM).

What about the MIC90 [6] of the same molecule?
The MIC90 was 4 µg/mL (≈ 11.9 µM).

What about the MIC50 [7] of the same molecule?
The MIC50 was 4 µg/mL (≈ 11.9 µM).

And the MIC90 [7]?
Its MIC90 is 4 µg/mL (≈ 11.9 µM).

What about the MIC (Bacteroides fragilis) of the same molecule?
The MIC was 4 µg/mL (≈ 11.9 µM).

And the MIC50 (Bacteroides fragilis)?
The MIC50 was 4 µg/mL (≈ 11.9 µM).

What about the MIC90 (Bacteroides fragilis) of the same molecule?
Its MIC90 is 8 µg/mL (≈ 23.7 µM).

What about the MIC50 (Bacteroides ovatus) of the same molecule?
The MIC50 was 4 µg/mL (≈ 11.9 µM).

And the MIC90 (Bacteroides ovatus)?
The MIC90 was 4 µg/mL (≈ 11.9 µM).

And the MIC50 (Phocaeicola vulgatus)?
Its MIC50 is 2 µg/mL (≈ 5.93 µM).

And the MIC90 (Phocaeicola vulgatus)?
The MIC90 was 4 µg/mL (≈ 11.9 µM).

What about the MIC50 (Bilophila wadsworthia) of the same molecule?
Its MIC50 is 4 µg/mL (≈ 11.9 µM).

And the MIC90 (Bilophila wadsworthia)?
Its MIC90 is 16 µg/mL (≈ 47.4 µM).

What about the MIC50 (Fusobacterium mortiferum) of the same molecule?
The MIC50 was 1 µg/mL (≈ 2.96 µM).

And the MIC90 (Fusobacterium mortiferum)?
Its MIC90 is 1 µg/mL (≈ 2.96 µM).

And the MIC50 (Prevotella denticola)?
Its MIC50 is 2 µg/mL (≈ 5.93 µM).

What about the MIC90 (Prevotella denticola) of the same molecule?
The MIC90 was 2 µg/mL (≈ 5.93 µM).

And the MIC50 (Prevotella disiens)?
The MIC50 was 2 µg/mL (≈ 5.93 µM).

What about the MIC90 (Prevotella disiens) of the same molecule?
The MIC90 was 2 µg/mL (≈ 5.93 µM).

What about the MIC50 (Prevotella intermedia) of the same molecule?
The MIC50 was 2 µg/mL (≈ 5.93 µM).

What about the MIC90 (Prevotella intermedia) of the same molecule?
The MIC90 was 2 µg/mL (≈ 5.93 µM).

What about the MIC50 (Hoylesella loescheii) of the same molecule?
The MIC50 was 2 µg/mL (≈ 5.93 µM).

What about the MIC90 (Hoylesella loescheii) of the same molecule?
Its MIC90 is 2 µg/mL (≈ 5.93 µM).

What about the MIC50 [8] of the same molecule?
The MIC50 was 2 µg/mL (≈ 5.93 µM).

And the MIC90 [8]?
Its MIC90 is 2 µg/mL (≈ 5.93 µM).

And the MIC50 (Hoylesella oralis)?
Its MIC50 is 2 µg/mL (≈ 5.93 µM).

And the MIC90 (Hoylesella oralis)?
Its MIC90 is 2 µg/mL (≈ 5.93 µM).

What about the MIC [9] of the same molecule?
Its MIC is over 128 µg/mL.

And the MIC50 [9]?
The MIC50 was over 128 µg/mL.

What about the MIC90 [9] of the same molecule?
The MIC90 was over 128 µg/mL.
